Experimental data from patent publication US20180186796A1, “COMPOUNDS AND USES THEREOF” (LEAD DISCOVERY SIENA S.R.L., priority 2014, published 2018).
In brackets after ≈: the same amount, converted by molar mass. Like-named read-outs stand apart in the source and are kept apart here.

How the values were obtained:
[1] = PAMPA, BBB permeability; settings: for PAMPA BBB (MR %): Membrane Retention; for Papp at 5 h, 0.5 mM: PAMPA, pH 7.4
[2] = Stability tests in phosphate buffer and methanol; type: physicochemical; settings: 20° C., 48 h incubation
[3] = Water solubility assay; settings: for H2O Sol.: Table 8, 20° C., 24 h; for solubility at 24 h / solubility thermodynamic at 24 h: water, 20 °C, thermodynamic from solid
Description: Each solid compound (1 mg) was added to 1 mL of water. […] The suspensions were filtered through a 0.45 μm nylon filter (Acrodisc), and the solubilized compound determined by LC-MS-MS assay. For each compound the determination was performed in triplicate. […] The flow rate was 0.2 mL min-^−1 and injection volume was 5 μL. The instrument operated in positive mode and parameters were: detector 1850 V, drying gas pressure 25.0 psi, desolvation temperature 300.0° C., nebulizing gas 40.0 psi, needle 5000 V and shield 600 V. Nitrogen was used as nebulizer gas and drying gas.
Solid compound (1 mg) was added to 1 mL of water. […] The suspensions were filtered through a 0.45-μm nylon filter (Acrodisc), and the solubilised compound determined by LC-UV-MS assay. The determination was performed in triplicate.
Chromatographic analysis was performed with the method above reported and quantification of compounds was made by comparison with apposite calibration curves realized with standard solutions in methanol.

[4] = Enzymatic stability in human plasma; type: in vitro ADME; settings: for half-life at 100 μM: human, pooled human plasma diluted with phosphate buffer, pH 7.4
[5] = PAMPA, intestinal (GI) permeability; settings: for PAMPA GI (MR %): Membrane Retention; for Papp at 5 h, 0.5 mM: PAMPA, pH 7.4
Description: Donor solution (0.5 mM) was prepared by diluting 1 mM dimethylsulfoxide (DMSO) compound stock solution using phosphate buffer (pH 7.4, 0.025 M). […] Donor solution (150 μL) was added to each well of the filter plate. To each well of the acceptor plate were added 300 μL of solution (50% DMSO in phosphate buffer). All compounds were tested in three different plates on different days. The sandwich was incubated for 5 h at room temperature under gentle shaking. After the incubation time, the plates were separated, and samples were taken from both receiver and donor sides and analyzed using LC with UV detection at 280 nm.
Permeability (Papp) for PAMPA was calculated according to the following equation, obtained from Wohnsland and Faller^27 and Sugano et al.^28 equation with some modification in order to obtain permeability values in cm s^−1,
Drug concentration is estimated by using the peak area integration. Membrane retentions (%) were calculated according to the following equation:
where r is the ratio between drug concentration in the acceptor and equilibrium concentration, D, A, and Eq represented drug concentration in the donor, acceptor and equilibrium solution, respectively.
Donor solution of tested compounds (0.5 mM) was prepared by diluting 1 mM dimethylsulfoxide (DMSO) compound stock solution using phosphate buffer (pH 7.4, 25 mM). […] Donor solution (150 μL) was added to each well of the filter plate. To each well of the acceptor plate were added 300 μL of solution (50% DMSO in phosphate buffer). Compounds was tested in three different plates on different days. The sandwich was incubated for 5 h at room temperature under gentle shaking.
Permeability (Papp) for PAMPA was calculated according to the following equation, obtained from Wohnsland and Faller and Sugano et al.^27, 28.
Drug concentration is estimated by using the peak area integration. Membrane retention (%) was calculated according to the following equation:

[6] = Microsomal stability assay; settings: percentage of unmodified drug, Table 8
[7] = system: U251 cells; test: Proliferation assay on U251 cells; type: cell-based, human; settings: 72 h, viable cells vs untreated
Description: (§1) U87 and U251 cells were purchased from European Collection of Cell Cultures (ECACC, Salisbury, UK) and were cultured in DMEM medium supplemented with 10% Foetal Bovine Serum. In order to determine antiproliferative effect of drugs tumor cells were seeded at 2×10^5 cells/ml density and treated with compounds at indicated concentrations. The cultures were maintained at 37° C. in 5% v/v CO2 for 72 h. Cell number and viability were evaluated by Trypan blue exclusion test. Viable cells were expressed as percentage respect to cells treated with vehicle (=100%). Mean and SD values of at least three different experiments are shown.
(§2) U87 and U251 cells were purchased from European Collection of Cell Cultures (ECACC, Salisbury, UK) and were cultured in DMEM medium supplemented with 10% Foetal Bovine Serum. In order to determine antiproliferative effect of drugs tumor cells were seeded at 2×10^5 cells/ml density and treated with compounds at indicated concentrations. The cultures were maintained at 37° C. in 5% v/v CO2 for 72 h. Cell number and viability were evaluated by Trypan blue exclusion test. Viable cells were expressed as percentage respect to untreated cells (=100%/). Mean and SD values of at least three different experiments are shown.

[8] = system: SH-SY5Y cells; test: Antiproliferative activity on neuroblastoma human cell line SH-SY5Y; type: cell-based; settings: 72 h, viable cells vs untreated
Description: (§3) In vitro experiments were carried out using the human neuroblastoma cell line SH-SY5Y. Cells were purchased from American Type Culture Collection (ATCC, Manassas, Va., USA) and were cultured in DMEM medium supplemented with 100/Foetal Bovine Serum. In order to determine antiproliferative effect of drugs SH-SY5Y cells were seeded at 2×10^5 cells/ml density and treated with compounds at increasing concentrations from 0.01 to 50 μM. The cultures were maintained at 37° C. in 5% v/v CO2 for 72 h. Cell number and vitality were evaluated using the automatic cell counter NucleoCounter® (Chemometec, Denmark). Results from the NucleoCounter represented either total or non-viable cell concentration, depending on the sample preparation indicated by manufacturer.
as §3, with “10% Foetal” for “100/Foetal”

[9] = system: U87 cells; test: Proliferation assay on U87 cells; type: cell-based, human; settings: 72 h, viable cells vs untreated
Description: as §1, §2

[10] = target: recombinant Fyn (Homo sapiens, UniProt P06241); test: Enzymatic assay on isolated Fyn kinase; settings: read-out: Enzymatic Data (Ki, μM) Fyn
[11] = system: K562 cells; test: Antiproliferative activity on human cell line K562; type: cell-based; settings: Homo sapiens, K562, read-out: Cellular Data (IC50, μM) K562
Description: In vitro experiments were carried out using the human Chronic Myelogeneous Leukemia cell line K562. Cells were purchased from American Type Culture Collection (ATCC, Manassas, Va., USA) and were cultured in RPMI medium supplemented with 10% Foetal Bovine Serum. […] Cell number and vitality were evaluated using the automatic cell counter NucleoCounteri (Chemometec, Denmark). Results from the NucleoCounter represented either total or non-viable cell concentration, depending on the sample preparation indicated by manufacturer.
In vitro experiments were carried out using the human Chronic Myelogeneous Leukemia cell line K562. Cells were purchased from American Type Culture Collection (ATCC, Manassas, Va., USA) and were cultured in RPMI medium supplemented with 10% Foetal Bovine Serum. […] Cell number and vitality were evaluated using the automatic cell counter NucleoCounter® (Chemometec, Denmark). Results from the NucleoCounter represented either total or non-viable cell concentration, depending on the sample preparation indicated by manufacturer.

[12] = system: U87 cells; test: Orthotopic mouse model of GBM; type: in vivo, mice; settings: 50 mg/kg three times per week for 4 weeks
Description: Survival curves (days) of orthotopic mouse model of GBM.
Male CD1 nude mice (Charles River, Milan, Italy) were maintained under the guidelines established by University of L'Aquila, Medical School and Science and Technology School Board Regulations, complying with the Italian government regulations for the use of laboratory animals. Before any invasive manipulation, mice were anesthetized with a mixture of ketamine (25 mg/ml)/xylazine (5 mg/ml). Tumor grafts were obtained by injecting with a Hamilton syringe mounted on a stereotactic instrument, 2*10^3 U87 cells resuspended in 2 microL PBS (David Kopf Instruments, CA, USA). The cells were injected after the exposition of periosteal cranic site and the drimming of a 1 mm diameter hole localized at 4 mm from striatum and with a depth of 4 mm. The wound was treated with antibiotics and was surgically sutured.

[13] = In vivo pharmacokinetics / biodistribution; set-up: species or system mice; settings: 50 mg/Kg i.p.; for Quantity of Compound, BLOOD / Quantity of Compound, BRAIN: administered compound itself, BALB/C mice
Description: The animal protocols used were reviewed and approved by the Animal Care and Ethics Committee of the Universita{grave over ( )} degli Studi di Siena, Italy. Male BALB/C mice (weight 20-30 g) were obtained from Charles River (Milan, Italy). […] The blood, previously heparinized, was centrifuged at 4000 rpm for 20 minutes to separate the plasma fraction and then 500 μl were collected in a test tube. […] Samples were centrifuged at 4000 rpm for 20 minutes, the supernatant was recovered, dried under vacuum and analyzed by LC-UV-MS. Brain was homogenized using a glass/glass Potter-Elvehjem homogenizer in presence of Tris-HCl buffer (50 mM) and compounds were recovered using 7 mL of ACN then treated as previously described for blood samples.

[14] = methanol, read-out: Stability MeOH t1/2
[15] = phosphate buffer, pH 7.4, read-out: Stability PBS pH 7.4 t1/2
[16] = 37° C., read-out: Stability Human Plasma t1/2 (converted)

recombinant Fyn, sequence (P06241 whole entry, looked up): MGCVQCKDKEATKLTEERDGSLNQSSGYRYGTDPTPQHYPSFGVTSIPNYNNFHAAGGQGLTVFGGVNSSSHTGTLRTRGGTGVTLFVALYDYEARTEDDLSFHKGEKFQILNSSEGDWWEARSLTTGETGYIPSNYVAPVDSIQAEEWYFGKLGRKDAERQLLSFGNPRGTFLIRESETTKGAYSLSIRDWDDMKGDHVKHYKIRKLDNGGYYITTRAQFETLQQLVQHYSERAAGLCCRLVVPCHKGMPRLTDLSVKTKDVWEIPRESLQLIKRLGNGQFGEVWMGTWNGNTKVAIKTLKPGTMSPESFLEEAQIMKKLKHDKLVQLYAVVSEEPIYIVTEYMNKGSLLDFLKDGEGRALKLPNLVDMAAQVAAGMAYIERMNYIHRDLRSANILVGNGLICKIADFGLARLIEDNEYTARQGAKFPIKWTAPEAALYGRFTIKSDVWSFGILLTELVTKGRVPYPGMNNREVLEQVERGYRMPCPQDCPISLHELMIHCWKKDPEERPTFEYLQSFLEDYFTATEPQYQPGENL

Row | Structure (SMILES) | PAMPA BBB (MR %) [1] | Papp at 5 h, 0.5 mM [1] | half-life at 500 μM [2, 14] | half-life at 500 μM [2, 15] | H2O Sol. [3] | solubility at 24 h [3] | PAMPA GI (MR %) [5] | Papp at 5 h, 0.5 mM [5] | Metabolic Stab. % [6] | IC50 ([7]; Homo sapiens, U-251) | IC50 ([8]; Homo sapiens, SH-SY5Y) | IC50 ([9]; Homo sapiens, U-87 MG) | solubility thermodynamic at 24 h [3] | half-life at 100 μM [4, 16] | further results
1 | CSc1nc(N(C(=O)OCCN2CCN(C)CC2)c2cccc(Br)c2)c2cnn(CC(C)c3ccccc3)c2n1 (stereo not drawn) [proSi278 (A), 2-(4-Methylpiperazin-1-yl)ethyl (3-bromophenyl)(6-(methylthio)-1-(2-phenylpropyl)-1H-pyrazolo[3,4-d]pyrimidin-4-yl)carbamate] | (49.8) % | 1.89 ×10⁻⁶ cm/s | > 48 h | > 48 h | 6.47 µg/mL | 11.5 µM (≈ 7.17 µg/mL) | (67.0) % | 2.11 ×10⁻⁶ cm/s | 99.9% | 5.2 µM | 0.4 µM | 6.3 µM | – | – | Stability Human Plasma t1/2 ([4]; 37° C.): 3.21 h; half-life at 100 μM ([4]; read-out: t1/2 in human plasma (converted)): 3.21 h
2 | CN1CCN(CCOC(=O)N(c2ccccc2)c2ncnc3c2cnn3CC(Cl)c2ccc(Br)cc2)CC1 (stereo not drawn) [proSi223, 2-(4-Methylpiperazin-1-yl)ethyl (1-(2-(4-bromophenyl)-2-chloroethyl)-H-pyrazolo[3,4-d]pyrimidin-4-yl)(phenyl)carbamate] | (24.9) % | 6.97 ×10⁻⁶ cm/s | > 48 h | > 48 h | – | 70.8 µM (≈ 42.4 µg/mL) | (16.0) % | 9.91 ×10⁻⁶ cm/s | – | 4.7 µM | 12.6 µM | 5.1 µM | 41.6 µg/mL (≈ 69.4 µM) | 4.47 h | –
3 | CCCCN(C(=O)OCCN1CCN(C)CC1)c1nc(SCC)nc2c1cnn2CC(Cl)c1ccccc1 (stereo not drawn) [proSi20, 2-(4-Methylpiperazin-1-yl)ethyl butyl(1-(2-chloro-2-phenylethyl)-6-(ethylthio)-1H-pyrazolo[3,4-d]pyrimidin-4-yl)carbamate] | – | – | – | – | – | – | – | – | – | 0.8 µM | 0.3 µM | 3.6 µM | – | – | –
4 | CSc1nc(Nc2cccc(Br)c2)c2cnn(CC(C)c3ccccc3)c2n1 (stereo not drawn) [Si278, N-(3-bromophenyl)-6-(methylthio)-1-(2-phenylpropyl)-H-pyrazolo[3,4-d]pyrimidin-4-amine] | (66.3) % | – | – | – | <0.01 µg/mL | – | (80.4) % | – | 95.1% | – | – | – | – | – | PAMPA BBB ([1]; Blood Brain Barrier PAMPA): 0.50 10^−6 cm · sec^−1; H2O Sol. (Log S) ([3]; Table 8): (<−7.60) log mol · L^−1; PAMPA GI ([5]; Gastrointestinal PAMPA, Table 8): 0 10^−6 cm · sec^−1; IC50 [7]: 3.7 µM; IC50 [8]: 1.2 µM; IC50 [9]: 5.8 µM
5 | Nc1ncnc2c1c(-c1ccc(F)cc1)nn2CC(Cl)c1ccccc1 (stereo not drawn) [Si310, 1-(2-Chloro-2-phenylethyl)-3-(4-fluorophenyl)-1H-pyrazolo[3,4-d]pyrimidin-4-amine] | – | – | – | – | – | – | – | – | – | – | – | – | – | – | Ki [10]: 0.36 µM; melting point: 203 to 206 °C; IC50 [11]: 12.6 ± 14.8 µM
6 | CN1CCN(CCOC(=O)N(c2cccc(Br)c2)c2nc(SCCN3CCOCC3)nc3c2cnn3CC(Cl)c2ccccc2)CC1 (stereo not drawn) [proSi306] | (42.0) % | 2.91 ×10⁻⁶ cm/s | > 48 h | > 48 h | – | 11.7 µM (≈ 8.74 µg/mL) | (45.5) % | 2.13 ×10⁻⁶ cm/s | – | – | – | – | 8.7 µg/mL (≈ 11.7 µM) | 3.48 h | survival of mice respect to control group [12]: significant ability in prolonging survival; brain concentration with respect to the drug [13]: higher brain concentration; Quantity of Compound, BLOOD ([13]; 15′): 10.7 ± 1.11 nmol of compound/g of tissue; Quantity of Compound, BLOOD ([13]; 30′): 8.9 ± 1.22 nmol of compound/g of tissue; Quantity of Compound, BLOOD ([13]; 1 h): 11.4 ± 1.29 nmol of compound/g of tissue; Quantity of Compound, BLOOD ([13]; 2 h): 7.2 ± 2.17 nmol of compound/g of tissue; Quantity of Compound, BLOOD ([13]; 4 h): 6.5 ± 0.58 nmol of compound/g of tissue; Quantity of Compound, BLOOD ([13]; 8 h): 6.2 ± 2.07 nmol of compound/g of tissue; Quantity of Compound, BLOOD ([13]; 24 h): 3.7 ± 0.60 nmol of compound/g of tissue; Quantity of Compound, BLOOD ([13]; […]): 8.3 ± 2.21 nmol of compound/g of tissue; Quantity of Compound, BRAIN ([13]; 15′): 5.3 ± 1.5 nmol of compound/g of tissue; Quantity of Compound, BRAIN ([13]; 30′): 3.4 ± 0.33 nmol of compound/g of tissue; Quantity of Compound, BRAIN ([13]; 1 h): 3.4 ± 2.24 nmol of compound/g of tissue; Quantity of Compound, BRAIN ([13]; 2 h): 2.8 ± 0.60 nmol of compound/g of tissue; Quantity of Compound, BRAIN ([13]; 4 h): 2.9 ± 1.38 nmol of compound/g of tissue; Quantity of Compound, BRAIN ([13]; 8 h): 3.6 ± 2.12 nmol of compound/g of tissue; Quantity of Compound, BRAIN ([13]; 24 h): 6.6 ± 1.08 nmol of compound/g of tissue; Quantity of Compound, BRAIN ([13]; […]): 2.4 ± 0.24 nmol of compound/g of tissue
